In brackets after ≈: the same amount, converted by molar mass.
What was measured:
physchem = settings: pH 7.4 buffer
Description: Solubility in pH 7.4 buffer

[1] = rat, in vivo, po, 10 mg/kg
Description: Plasma concentration in Long-Evans rat at 10 mg/kg, po

[2] = rat, in vivo, po, 10 mg/kg; remark: listed apart in the source
Description: Drug concentration in Long-Evans rat brain at 10 mg/kg, po

in vivo = settings: Long-Evans, rat, brain/plasma, po, 10 mg/kg
Description: Ratio of drug concentration in Long-Evans rat brain to plasma at 10 mg/kg, po

Molecule `CS(=O)(=O)n1ccc2cc(C(=O)N3CCCC(c4ccnc5ncnn45)C3)ccc21` (racemic) has a solubility (physchem) of 105 µM (≈ 44.6 µg/mL).
In the case of `C[C@@H]1CCN(C(=O)c2ccc3occc3c2)C[C@H]1c1cc(C(F)F)nc2ncnn12`, the Cp [1] is reported as 1640 ng/mL, the Drug uptake [2] is reported as 788 ng/mL and the Kp (in vivo) is reported as 0.5.

Reference: ChEMBL document CHEMBL4665888, “[1,2,4]Triazolo[1,5-a]pyrimidine Phosphodiesterase 2A Inhibitors: Structure and Free-Energy Perturbation-Guided Exploration” (J Med Chem, 2020)
